Where a chain is given by its changes, count along the chain named.
Assays:
Format in all cases: cell-based
Details in all cases: Fold-activation at 20 uM in oocytes
K2P10.1 (TREK-2)^CG* = target: T1, K2P10.1 (TREK-2)^CG* (Mus musculus, UniProt Q8BUW1, S153C); assay: TEVC in Xenopus oocytes
T1 construct: Modified TREK-2 from Mus musculus; expressed in transfected cells; host or cells: Xenopus laevis oocytes injected with mRNA
T1 sequence (Q8BUW1 with tags, fused parts or gaps S153C): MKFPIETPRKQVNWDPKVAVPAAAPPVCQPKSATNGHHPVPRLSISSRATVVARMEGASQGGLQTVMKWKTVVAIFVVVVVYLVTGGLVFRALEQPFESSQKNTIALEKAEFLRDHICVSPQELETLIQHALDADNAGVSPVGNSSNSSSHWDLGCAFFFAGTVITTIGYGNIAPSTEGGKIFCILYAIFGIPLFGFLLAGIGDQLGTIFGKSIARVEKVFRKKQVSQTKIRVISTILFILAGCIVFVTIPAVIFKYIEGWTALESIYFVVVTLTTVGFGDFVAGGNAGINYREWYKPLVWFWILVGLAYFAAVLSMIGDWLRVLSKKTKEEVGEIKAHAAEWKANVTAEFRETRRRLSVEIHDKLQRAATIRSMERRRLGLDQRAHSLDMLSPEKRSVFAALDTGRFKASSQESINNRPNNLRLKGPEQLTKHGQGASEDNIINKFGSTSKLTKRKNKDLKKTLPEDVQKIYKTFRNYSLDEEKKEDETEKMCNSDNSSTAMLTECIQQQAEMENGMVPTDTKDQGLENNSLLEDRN
Excerpt: (§1) Mouse K2P2.1 (TREK-1) (Genbank accession number: NP_034737.2), mouse K2P10.1 (TREK-2) (NM_001316665.1), mouse K2P4.1 (TRAAK) (NM_008431.3), human K2P4.1 (TRAAK) (NM_033310.2) and mouse K2P18.1(TRESK) (NM_207261.3) were used for this study. Point mutations were introduced by site-directed mutagenesis using custom primers and confirmed by sequencing before use. For studies using Xenopus oocytes, K2P channels were subcloned into a previously reported pGEMHE/pMO vector (46). For expression in HEK293 cells, mouse K2P2.1 (TREK-1) and mutants were expressed from a previously described pIRES2-EGFP vector in HEK293 cells (46,47). K2P2.1 (TREK-1) tandems were constructed by connecting the open reading frames for the individual subunits with a linker encoding the […] (SEQ ID NO: 19) sequence. Tandems used for HEK293 cells included an N-terminal HA tag ([…] (SEQ ID NO: 20)) on the first subunit.
(§2) Xenopus laevis oocytes were harvested according to UCSF IACUC Protocol AN129690 and digested using collagenase (Worthington Biochemical Corporation, #LS004183, 0.8-1.0 mg/mL) in Ca^21-free ND96 (96 mM NaCl, 2 mM KCl, 3.8 mM MgCl2, 5 mM HEPES pH 7.4) immediately post-harvest, as previously reported (31,33). Oocytes were maintained at 18° C. in ND96 (96 mM NaCl, 2 mM KCl, 1.8 mM CaCl2, 2 mM MgCl2, 5 mM HEPES pH 7.4) supplemented with antibiotics (100 units mL^−1 penicillin, 100 μg mL^−1 streptomycin, 50 μg mL^−1 gentimycin) and used for experiments within one week of harvest.
(§3) Defolliculated stage V-VI oocytes were microinjected with 0.5-36 ng mRNA and currents were recorded within 16-48 h hours of injection.
(§4) For recordings, oocytes were impaled with borosilicate recording microelectrodes (0.4-2.0 MΩ resistance) backfilled with 3 M KCl and were subjected to constant perfusion of ND96 at a rate of 3 ml min^−1. Recording solutions containing K2P activators were prepared immediately prior to use from DMSO stocks (20-100 mM), with final DMSO concentrations of 0.1%. Currents were evoked from a −80 mV holding potential followed by a 300 ms ramp from −150 mV to +50 mV. Data were recorded using a GeneClamp 500B amplifier (MDS Analytical Technologies) controlled by pCLAMP8 software (Molecular Devices), and digitized at 1 kHz using Digidata 1332 Å digitizer (MDS Analytical Technologies). For each recording, control solution (ND96) was perfused over a single oocyte until current was stable before switching to solutions containing the test compounds at various concentrations. Representative traces and dose response plots were generated in GraphPad Prism 9.

[1] = target: T2, TREK-1^CG* (K2P2.1 (TREK-1) S131C) (Mus musculus, UniProt P97438, S146C); assay: TEVC in Xenopus oocytes
T2 construct: expressed in transfected cells; host or cells: Xenopus laevis oocytes injected with mRNA
T2 sequence (P97438 1-411 isoform P97438-2 S131C): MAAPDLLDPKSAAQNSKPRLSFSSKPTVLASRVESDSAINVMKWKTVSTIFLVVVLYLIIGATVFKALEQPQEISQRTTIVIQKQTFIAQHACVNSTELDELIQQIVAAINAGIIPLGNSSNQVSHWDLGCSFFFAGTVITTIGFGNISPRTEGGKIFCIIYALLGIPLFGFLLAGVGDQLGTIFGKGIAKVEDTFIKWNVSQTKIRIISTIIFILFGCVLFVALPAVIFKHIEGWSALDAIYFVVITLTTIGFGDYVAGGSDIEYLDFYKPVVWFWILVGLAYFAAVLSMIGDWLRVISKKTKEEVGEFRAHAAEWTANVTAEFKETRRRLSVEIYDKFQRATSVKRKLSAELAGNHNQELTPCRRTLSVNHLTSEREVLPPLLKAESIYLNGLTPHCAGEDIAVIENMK
Excerpt: as §1, §2, §3, §4

TREK-2 = target: T3, TREK-2 (Mus musculus, UniProt Q8BUW1); assay: TEVC in Xenopus oocytes
T3 construct: expressed in transfected cells; host or cells: Xenopus laevis oocytes injected with mRNA
T3 sequence (Q8BUW1 with tags, fused parts or gaps): T1 sequence (Q8BUW1 with tags, fused parts or gaps S153C) with C156S
Excerpt: as §1, §2, §3, §4

K2P2.1 (TREK-1) = target: T4, K2P2.1 (TREK-1) (Mus musculus, UniProt P97438); assay: Two-electrode voltage clamp (TEVC) in Xenopus oocytes
T4 construct: expressed in transfected cells; host or cells: Xenopus laevis oocytes injected with mRNA (pGEMHE/pMO vector)
T4 sequence (P97438 1-411 isoform P97438-2): T2 sequence (P97438 1-411 isoform P97438-2 S131C) with C131S
Excerpt: as §1, §2, §3, §4

| SMILES | TREK-2 GC activity class (K2P10.1 (TREK-2)^CG*) | TREK-1 GC activity class [1] | TREK-2 activity class (TREK-2) | TREK-1 activity class (K2P2.1 (TREK-1)) |
| --- | --- | --- | --- | --- |
| CC1=CC(=O)N(c2ccc(C(=O)NCc3ccc(Cl)cc3Cl)cc2)C1=O [Entry 15] | +++ (>5 fold) | +++ (>5 fold) | + (1.5-2.5 fold) | + (1.5-2.5 fold) |
| O=C(NCc1ccc(Cl)cc1Cl)c1ccc(N2C(=O)C=CC2=O)cc1 [Entry 16] | +++ (>5 fold) | +++ (>5 fold) | + (1.5-2.5 fold) | + (1.5-2.5 fold) |

From patent US20260098008A1, “COVALENT, CHEMOGENETIC ACTIVATORS FOR K2P POTASSIUM CHANNELS AND USES THEREOF” (THE REGENTS OF THE UNIVERSITY OF CALIFORNIA, priority 2022, published 2026)
